This is an account of results in US4438031A, “N-(Alkylsulfonyl)-L-proline amide and N-(alkylsulfonyl)-2-carboxylic acid amide-indoline derivatives” (American Home Products Corporation, priority 1982, dated 1984).

Structures can show the parent of a compound that is named as a salt.

The conditions of assay [1]: humans with certain forms of hypertension; cited from earlier work.
For assay [2] the following is noted: oral administration; cited from earlier work.
Assay [3] addresses T1, angiotensin converting enzyme (Oryctolagus cuniculus, UniProt P12822).
T1 construct: The in vitro assay utilizes rabbit lung extract; from tissue; host or cells: rabbit lung extract
T1 sequence (P12822 34-1310): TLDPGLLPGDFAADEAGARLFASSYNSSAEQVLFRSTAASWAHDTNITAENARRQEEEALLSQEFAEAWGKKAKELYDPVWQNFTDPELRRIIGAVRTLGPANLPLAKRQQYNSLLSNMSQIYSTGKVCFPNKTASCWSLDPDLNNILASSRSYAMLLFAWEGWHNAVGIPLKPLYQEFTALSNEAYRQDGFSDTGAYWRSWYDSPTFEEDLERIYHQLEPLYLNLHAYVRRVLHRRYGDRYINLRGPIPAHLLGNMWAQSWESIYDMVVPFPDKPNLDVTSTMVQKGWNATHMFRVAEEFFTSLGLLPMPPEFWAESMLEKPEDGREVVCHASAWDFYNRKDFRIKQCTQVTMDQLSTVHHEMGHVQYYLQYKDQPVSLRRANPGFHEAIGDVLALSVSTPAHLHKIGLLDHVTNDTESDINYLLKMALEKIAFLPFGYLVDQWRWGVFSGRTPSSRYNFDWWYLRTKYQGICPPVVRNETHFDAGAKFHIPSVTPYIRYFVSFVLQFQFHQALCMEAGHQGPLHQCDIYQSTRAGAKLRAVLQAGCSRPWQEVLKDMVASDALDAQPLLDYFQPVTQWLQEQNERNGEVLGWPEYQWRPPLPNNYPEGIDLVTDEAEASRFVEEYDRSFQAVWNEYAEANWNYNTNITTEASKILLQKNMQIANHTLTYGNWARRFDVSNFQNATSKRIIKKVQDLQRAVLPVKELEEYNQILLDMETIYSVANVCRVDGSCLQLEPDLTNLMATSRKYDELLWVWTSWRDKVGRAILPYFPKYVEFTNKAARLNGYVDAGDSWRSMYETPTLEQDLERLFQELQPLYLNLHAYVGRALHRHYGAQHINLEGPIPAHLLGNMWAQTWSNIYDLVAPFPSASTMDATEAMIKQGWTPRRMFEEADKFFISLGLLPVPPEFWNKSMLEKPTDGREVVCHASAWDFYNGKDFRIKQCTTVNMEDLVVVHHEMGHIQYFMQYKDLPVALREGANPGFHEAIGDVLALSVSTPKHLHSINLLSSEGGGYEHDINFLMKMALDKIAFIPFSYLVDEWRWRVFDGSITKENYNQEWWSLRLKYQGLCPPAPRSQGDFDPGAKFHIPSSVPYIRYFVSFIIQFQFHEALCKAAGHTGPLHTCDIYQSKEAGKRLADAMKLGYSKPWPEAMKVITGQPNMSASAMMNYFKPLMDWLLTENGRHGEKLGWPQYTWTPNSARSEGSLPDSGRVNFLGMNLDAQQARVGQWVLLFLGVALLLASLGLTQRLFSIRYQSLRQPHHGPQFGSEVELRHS
Put plainly: in vitro angiotensin converting enzyme (ACE) inhibition, rabbit lung extract, substrate hippuryl-L-histidyl-L-leucine (Cushman et al.). The class given is biochemical. As to the method: The angiotensin converting enzyme (ACE) inhibitory property of the compounds is measured in vitro and in vivo. The in vitro assay utilizes rabbit lung extract and a specific tripeptide substrate, hippuryl-L-histidyl-L-leucine being preferred, and follows the method of Cushman et al., Biochem. Pharmacol, 20, 1637-1648 (1971).

In the case of “Pyr-Trp-Pro-Arg-Pro-Gln-Ile-Pro-Pro (WPRPQIPP; N-terminal pyroglutamyl; printed: Trp-Pro-Arg-Pro-Gln-Ile-Pro-Pro) [BPP9a]”, the “anti-hypertensive effect in clinical studies” value in assay [1] is listed as “effective anti-hypertensive agent”. The “oral activity as an anti-hypertensive agent” value in assay [2] is “not orally active”.
Regarding `C[C@H](CSC(=O)c1ccccc1)C(=O)N1CCC[C@H]1C(=O)NS(C)(=O)=O` [Example 3, Benzenecarbothioic Acid S-[(2S)-2-Methyl-3-[(2S)-2-[(Methylsulfonylamino)Carbonyl]-1-Pyrrolidinyl]-3-Oxopropyl]Ester], the inhibition at 0.05 µg/mL in assay [3] (concentration 50 ng/ml) lay within 14 to 21%. The “inhibition of angiotensin converting enzyme” value in assay [3] (concentration 100 ng/ml) is 31-37%; in assay [3] (concentration 1000 ng/ml) it was 76-80%.
`C[C@H](CS)C(=O)N1CCCC1C(=O)O` (stereo in doubt) [D-3-mercapto-2-methylpropanoyl-L-proline]: the “oral activity as an anti-hypertensive agent” value in assay [2] is “effective when administered orally”.
Turning to `C[C@H](CS)C(=O)N1CCC[C@H]1C(=O)NS(C)(=O)=O` [Example 4, (S)-1-[(2S)-3-Mercapto-2-Methyl-1-Oxopropyl]-N-(Methylsulfonyl)-2-Pyrrolidinecarboxamide], in assay [3] (concentration 50 ng/ml), the inhibition at 0.05 µg/mL turned out to be 32% and the “inhibition of angiotensin converting enzyme” value is 50-57%. In addition, the inhibition at 1 µg/mL in assay [3] (concentration 1000 ng/ml) was 89 to 92%.
For the molecule `C[C@H](CSC(=O)c1ccccc1)C(=O)N1CCC[C@H]1C(=O)NS(C)(=O)=O` [Example 1, Benzenecarbothioic Acid S-[(2S)-2-Methyl-3-[(2S)-2-[(Methylsulfonylamino)Carbonyl]-1-Pyrrolidinyl]-3-Oxopropyl]Ester, Dicyclohexylamine Salt], the inhibition at 0.1 µg/mL in assay [3] (concentration 100 ng/ml) is 35 to 38%. Moreover, the “inhibition of angiotensin converting enzyme” value in assay [3] (concentration 100 ng/ml, listed as Example 2) is listed as 35-38%. Besides, the inhibition at 1 µg/mL in assay [3] (concentration 1000 ng/ml) is 80%.
